In patent US9034825B2, “Treatment of myocardial injury with humanin analogs” (Albert Einstein College of Medicine of Yeshiva University, priority 2007, dated 2015):
“Also recorded” adds a separate entry of the source.

Key:
[1] = tested on: phospho STAT-3 in hypothalamus; assay: Western blot of hypothalamic STAT-3 phosphorylation after ICV infusion; format: in vivo, rat; details: within an hour of ICV HN infusion
Description: The indicated tissues were homogenized in 20 mM MOPS, 2 mM EGTA, 5 mM EDTA, 30 mM sodium fluoride, 40 mM beta-glycerophosphate, 10 mM sodium pyrophosphate, 2 mM orthovanadate, 0.5% NP-40 and complete protease inhibitor cocktail (Roche, Indianapolis, Ind., USA) and centrifuged at 12,000 g for 15 min and the supernatant was harvested while carefully avoiding the lipid layer on top. Protein concentration was measured with a BCA protein quantification kit (Pierce, Rockford, Ill., USA). Protein extracts were separated on 4-12% NuPAGE (Invitrogen, Carlsbad, Calif., USA) gels and were blotted onto Immobilon FL PVDF (Millipore, Billerica, Mass., USA). […] After three washes in TBS-T and a final wash in TBS the blots were scanned using the LI-COR Odyssey (LI-COR, Lincoln, Nebr., USA) and quantified using Odyssey 2.0 software based on direct fluorescence measurement.
For acute signaling studies, rats were injected ICV with either aCSF, 20 μg of HN or F6A (dissolved in aCSF) over 5 min, and sacrificed 30 min later. […] Samples were also obtained from these tissues at the end of the clamp and western blot analysis was performed as described previously (Muzumdar et al. 2003) The blots were scanned using the LI-COR Odyssey (LI-COR, Lincoln, Nebr., USA) and quantified using Odyssey 2.0 software based on direct fluorescence measurement. […]

[2] = target: IGF-1 (Homo sapiens, UniProt P05019); assay: Western ligand blots with 125I-labeled IGF-1; format: binding; details: data not shown
[3] = tested on: Sprague-Dawley rats; assay: ICV infusion of IGF-1, IGFBP-3 or NLS mutant with basal and hyperinsulinemic clamp; format: in vivo, rat
Description: Young (3 mo old, n=6 in each group), male Sprague-Dawley rats (Charles River Laboratories, Wilmington, Mass.) were used for this study. Rats were housed in individual cages and were subjected to a standard light (6:00 AM to 6:00 PM)—dark (6:00 PM to 6:00 AM) cycle. All rats were fed ad libitum using regular rat chow that consisted of 64% carbohydrate, 30% protein, and 6% fat with a physiological fuel value of 3.3-kcal/g chow. In the rats that received ICV infusions, 2 to 4 weeks before the in vivo study, the rats were anesthetized by inhalation of isoflurane and a cannula was placed ICV in the third ventricle for infusions of IGF-1, IGFBP-3 or IGFBP-3 mutant or artificial cerebrospinal fluid (aCSF), as previously described (Muzumdar et al., 2003) (FIG. 1). Briefly, a 26-gauge stainless steel guide cannula (Plastics One, Roanoke, Va.) was chronically implanted into the third ventricles using the following coordinates from bregma: anterior-posterior; +0.2 mm dorsal-ventral; −9.0 mm medial-lateral; 0.0 directly on the mid-sagittal suture, followed by a 28-gauge dummy cannula, inserted to prevent clogging of the guide cannula. The implant was secured to the skull with Caulk Grip dental cement, and the skin was closed over the implant using wound clips. The recovery of rats from the surgical stress was monitored with daily weight, food intake, and movement.
Upon recovery of body weight, usually a week, indwelling catheters were placed in the right internal jugular vein and in the left carotid artery (Muzumdar et al., 2003). The venous catheter was extended to the level of the right atrium, and the arterial catheter was advanced to the level of the aortic arch. Recovery was continued until body weight was within 3% of the pre-operative weight (˜4-6 days). In the rats that received peripheral IGFBP-3, only the vascular catheters were placed.
Studies were performed in unrestrained rats using the insulin clamp technique, in combination with high performance liquid chromatography-purified [3-^3H]glucose and [U-^14C]lactate infusions, as described previously (Liu et al., 1998). Food was removed for ˜5 h before the in vivo protocol. All studies lasted 360 min and included a 120-min equilibration period, a 120-min basal period for assessment of the basal glucose turnover, and a 120-min hyperinsulinemic clamp period. All rats received ICV infusions (bolus followed by continuous ICV infusions of IGF-1, IGFBP-3, IGFBP-3 mutant or aCSF, depending on the group) over the entire 6 hours of the study. At the beginning of the basal period and 120 min before starting the glucose/insulin infusions, a primed-continuous infusion of high performance liquid chromatography-purified [3-^3H]glucose (NEN Life Science Products, Boston, Mass.; 20 μCi of bolus, 0.2 μCi/min) was initiated and maintained throughout the remaining 4 h of the study. In the final 2 hours of the study, the rats were subjected to hyperinsulinemic clamp. The protocol followed during the insulin clamp study was similar to that previously described (Liu et al., 1998). Briefly, a primed-continuous infusion of regular insulin (3 milliunits/kg·min) was administered, and a variable infusion of a 25% glucose solution was started and periodically adjusted to clamp the plasma glucose concentration at 7-8 mM. To prevent endogenous insulin secretion and in order to control for possible effects of ICV infusions on the endocrine pancreas, somatostatin (1.5 μg/kg·min) was also infused in all the groups. [U-^14C]Lactate (5 μCi of bolus/0.25 μCi/min) was infused during the last 10 min of the study.
A bolus of hIGF-1 (0.3 mcg, a gift from Tercica, South San Francisco) was followed by a continuous infusion over 6 hours (total dose of 1 mcg, 0.06 μg/kg/hr).
A bolus of non glycosylated hIGFBP-3 (1.25 μg, generously provided by Celtrix, Mountain View Calif.) was followed by a continuous infusion over 6 hours (total dose of 5.25 mcg, 0.26 μg/kg/hr). […]

[4] = ICV IGFBP-3, insulin clamp 3 mU/kg/min
[5] = ICV IGFBP-3 or NLS mutant over 6 h, basal period
[6] = ICV IGFBP-3 or NLS mutant over 6 h, hyperinsulinemic clamp
[7] = ICV infusion, hyperinsulinemic clamp

IGF-1, sequence (P05019 49-118): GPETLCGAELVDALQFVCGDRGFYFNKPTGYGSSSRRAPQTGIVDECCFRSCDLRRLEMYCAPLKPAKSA

Compound	increase in STAT-3 phosphorylation in hypothalamic tissues [1] [fold]	binding to 125I-labeled IGF-1 [2]	decrease in peripheral glucose uptake [3, 4] [%]	increase in hepatic glucose production compared to controls [3, 4] [%]	Glycogen synthesis, Basal [3, 5]	Glycolysis, Basal [3, 5] [mg/kg/min]	HGP, Basal [3, 5] [mg/kg/min]	Glycogen synthesis, Clamp [3, 6]	Glycolysis, Clamp [3, 6] [mg/kg/min]	HGP, Clamp [3, 6] [mg/kg/min]	Rd, Clamp [3, 6] [mg/kg/min]	GIR, Clamp ([3]; ICV IGFBP-3 or NLS mutant over 6 h, hyperinsulinemic clamp 3 mU/kg/min) [mg/kg/min]	FFA ([3]; ICV IGFBP-3 or NLS mutant over 6 h, hyperinsulinemic clamp, last 60 min) [mEq/l]	h-IGFBP-3 ([3]; ICV IGFBP-3 or NLS mutant over 6 h, peripheral plasma) [ng/mL]	gluconeogenesis [3, 7] [mg/kg/min]	glycogenolysis / hepatic glucose fluxes compared to controls [3, 7]	insulin induced suppression of FFA compared to controls [3, 7]	whole body glucose disposal / peripheral glucose uptake (Rd) compared to controls ([3]; ICV infusion, hyperinsulinemic clamp, final 60 min)	infused human peptide in the rat periphery ([3]; after ICV infusion)
CC[C@H](C)[C@H](NC(=O)[C@H](CCC(=O)O)NC(=O)[C@H](CO)NC(=O)[C@@H](NC(=O)[C@H](CC(C)C)NC(=O)[C@H](CC(C)C)NC(=O)[C@H](CC(C)C)NC(=O)[C@H](CC(C)C)NC(=O)[C@H](CS)NC(=O)[C@H](CO)NC(=O)[C@H](Cc1ccccc1)NC(=O)CNC(=O)[C@H](CCCNC(=N)N)NC(=O)[C@@H]1CCCN1C(=O)[C@H](C)NC(=O)[C@@H](N)CCSC)[C@@H](C)O)C(=O)N[C@@H](CC(=O)O)C(=O)N[C@@H](CC(C)C)C(=O)N1CCC[C@H]1C(=O)N[C@H](C(=O)N[C@@H](CCCCN)C(=O)N[C@@H](CCCNC(=N)N)C(=O)N[C@@H](CCCNC(=N)N)C(=O)N[C@@H](C)C(=O)O)C(C)C [Humanin, maprgfscll lltseidlpv krra]	10	–	–	–	–	–	–	–	–	–	–	–	–	–	–	–	–	–	–
IGFBP-3: non glycosylated hIGFBP-3 (IGF binding protein-3), provided by Celtrix	–	bound equally	~30	45	4.62 ± 0.69	9.33 ± 1.27	13.95 ± 0.99	4.46 ± 0.68	9.95 ± 1.05	7.08 ± 0.59	14.01 ± 0.82	6.95 ± 1.11	0.72 ± 0.06	0	0.37 ± 0.1	significant increase	significantly reduced	significantly decreased	No hIGFBP-3 was detected; also recorded: No human IGF-1, hIGFBP-3 or NLS-IGFBP-3 was identified
